Measured values: publication PMC11162475, “Rule-based omics mining reveals antimicrobial macrocyclic peptides against drug-resistant clinical isolates” (Nature Communications, 2024)
In brackets after ≈: the same amount, converted by molar mass. Read-outs that look alike come from different tables or passages of the source.

Tests used:
[1] = test system: Enterococcus faecium MCC2763; assay: microbe, parasite or virus in culture; type: cell-based
Method: (§1) For MIC determination, Staphylococcus aureus ATCC25923, Bacillus subtilis 168, Micrococcus luteus DSM1790, Enterococcus faecalis OG1RF, Enterococcus faecium MCC2763, Escherichia coli DH5α and Pseudomonas aeruginosa PAO1 were used as indicator strains. Nisin and vancomycin were used as positive controls. A dilution series of massatide A, massatide B, vancomycin (16, 8, 4, 2, 1, 0.5, 0.25, 0.125, 0.0625, 0.0313 μg/mL) and sistertide A1, kebanetide A1, kebanetide A2, nisin (64, 32, 16, 8, 4, 2, 1, 0.5, 0.25, 0.125 μg/mL) were prepared in 96-well plate from 1–10th column. The indicator strains were added to the compound-containing well. The indicator strain culture with no antibiotics was prepared in the 11th column. The 12th column was filled with 200 μL empty MHB medium. The 96-well plate was incubated at 37 °C for 20 h (30 °C for M. luteus and B. subtilis). The OD600 was detected on MULTISKAN Sky (Thermo Scientific) and MIC values were determined. The MIC values of clinical isolates were determined by Sichuan Primed Shines Bio-tech Co., Ltd. (China) following similar protocol. Levofloxacin was used as a positive control.

Bacillus subtilis 168 = assay: microbe, parasite or virus in culture; type: cell-based
Method: as §1

[2] = test system: Micrococcus luteus DSM1790; assay: microbe, parasite or virus in culture; type: cell-based
Method: as §1

[3] = test system: Staphylococcus aureus ATCC25923; assay: microbe, parasite or virus in culture; type: cell-based
Method: as §1

[4] = test system: Enterococcus faecalis OG1RF; assay: microbe, parasite or virus in culture; type: cell-based; conditions: 20 h
Method: as §1

Escherichia coli DH5α = type: cell-based; conditions: 20 h
Method: as §1

[5] = test system: Pseudomonas aeruginosa PAO1; type: cell-based
Method: as §1

[6] = test system: Micrococcus luteus DSM1790; assay: Kirby-Bauer assay, zone of inhibition (agar well); type: cell-based; conditions: M. luteus DSM1790; 10 μL DMSO stock (3.2 or 1.6 mg/mL) in well of soft LB agar, 30 °C, 20 h
Method: The stock solution of massatide A (1) and B (1a) 3.2 mg/mL were prepared in DMSO. 40 μL overnight culture of Micrococcus luteus DSM1790 was added to 20 mL soft Luria-Bertani agar (1% agar), and then poured into a plate. 10 μL tip was used to make two wells on the plate. 10 μL massatide A (1) or B (1a) solution was added in one of the wells, while in the other well, 10 μL DMSO was added as a negative control. The plates were incubated at 30 °C for 20 h to observe the zone of inhibition. Staphylococcus aureus ATCC25923 was also used to observe the inhibition zone using a similar method. The only difference is incubating at 37 °C. Stock solutions of sistertide A1, kebanetide A1 and A2 were 3.2 mg/mL, 1.6 mg/mL and 1.6 mg/mL, respectively. The method to observe the activity of these compounds individually was the same as that of massatide.

S. aureus ATCC 25923 [7] = conditions: 25 days of serial passaging, control antibiotic
Method: was used as a negative control.
Experiments were performed in triplicate.
The experiment was performed in triplicate.

S. aureus ATCC 25923 [8] = assay: Lysis of S. aureus culture; type: cell-based, Staphylococcus aureus; conditions: S. aureus ATCC 25923 culture OD600 1.0, 10×MIC, 24 h
Method: Growth kinetics of S. aureus
Massatide A or B was prepared in a 96-well plate at the concentration of 8×MIC, 4×MIC, 2×MIC, 1×MIC and 0.5×MIC , respectively. The MHB medium with no compound was used as a control. Then, the overnight culture of S. aureus ATCC 25923 cells was added to the medium at 1:1,000. The plate was incubated with shaking in SpectraMax iD3 (MOLECULAR DEVICES) at 30 ℃. OD600 was measured every 30 min for 36 hours. To analyze the lysis, 1mL of S. aureus ATCC 25923 culture (OD600 1.0) was treated with massatide A or vancomycin (10×MIC) for 24h. An untreated sample was used as a negative control. […]
(§2) Experiments were performed in triplicate. […]

S. aureus ATCC 25923 [9] = assay: Time-dependent killing assay; type: cell-based, Staphylococcus aureus; conditions: time-killing assay
Method: Time-dependent killing assay
An overnight culture of S. aureus ATCC 25923 cells was diluted at 1:10,000 in MHB medium and incubated at 37 ℃, 200 rpm for 2 hours to reach the early exponential.
Then, massatide A or vancomycin was added to the culture at the concentration of 10×MIC. Bacteria were still cultivated at 37 ℃, 200 rpm. Culture with no antibiotics was used as a negative control. 10 μL aliquots were removed at intervals, centrifuged, and resuspended in 1 ml PBS. Serially diluted (10-fold) suspensions were plated on MHB agar and incubated at 37 ℃ overnight for counting of colony-forming units.
as §2

## C=C1NC(=O)C(NC(=O)/C(=C/C)NC(=O)[C@H](CCCNC(=N)N)NC(=O)[C@@H](C)NC(=O)[C@@H](NC(=O)[C@H](C)NC(=O)[C@@H](NC(=O)[C@@H](C)NC(=O)[C@H](C)NC(=O)[C@@H]2CSC(C)C(N(C)C)C(=O)N/C(=C\C)C(=O)N[C@@H](Cc3ccc(O)cc3)C(=O)N[C@@H]([C@@H](C)CC)C(=O)N2)C(C)C)[C@@H](C)CC)CSC[C@@H](C(=O)N[C@H](C)C(=O)N[C@@H](C)C(=O)N[C@@H](C)C(=O)N[C@@H](C)C(=O)N[C@H](C)C(=O)N[C@@H](C)C(=O)N[C@H](C(=O)N[C@H](C)C(=O)NCC(=O)N[C@@H](C)C(=O)NC2C(=O)N[C@@H](Cc3ccc(O)cc3)C(=O)N[C@@H](CCC(=O)O)C(=O)N[C@@H](Cc3c[nH]c4ccccc34)C(=O)N[C@@H]([C@@H](C)O)C(=O)N/C=C\SC2C)[C@@H](C)CC)NC(=O)[C@H](CCCCN)NC(=O)[C@H](C(C)C)NC1=O (stereo partly drawn) [Sistertide A1 (2), sistertide A1]
[1]; MCC2763, 20 h
  MIC: >64 µg/mL
Bacillus subtilis 168; 168, 20 h
  MIC: >64 µg/mL
[2]; DSM1790, 20 h
  MIC: >64 µg/mL
[3]; ATCC25923, 20 h
  MIC: >64 µg/mL
[4]; OG1RF
  MIC: >64 µg/mL
Escherichia coli DH5α; DH5α
  MIC: >64 µg/mL
[5]; PAO1, 20 h
  MIC: >64 µg/mL
[6]
  inhibitory activity (zone of inhibition): did not display significant inhibitory activity

## kebanetide A1 [Kebanetide A1 (4)]
[1]; Enterococcus faecium MCC2763, dilution series in 96-well plate, MHB, 37 °C, 20 h, OD600
  MIC: 32 µg/mL
Bacillus subtilis 168; Bacillus subtilis 168, dilution series in 96-well plate, MHB, 30 °C, 20 h, OD600
  MIC: 8 µg/mL
[2]; Micrococcus luteus DSM1790, dilution series in 96-well plate, MHB, 30 °C, 20 h, OD600
  MIC: 8 µg/mL
[3]; Staphylococcus aureus ATCC25923, dilution series in 96-well plate, MHB, 37 °C, 20 h, OD600
  MIC: 64 µg/mL
[4]; Enterococcus faecalis OG1RF, dilution series in 96-well plate, MHB, 37 °C, OD600
  MIC: 16 µg/mL
Escherichia coli DH5α; Escherichia coli DH5α, dilution series in 96-well plate, MHB, 37 °C, OD600
  MIC: >64 µg/mL
[5]; Pseudomonas aeruginosa PAO1, dilution series in 96-well plate, MHB, 37 °C, 20 h, OD600
  MIC: >64 µg/mL
[6]
  inhibitory activity (zone of inhibition): exhibited growth inhibition

## CN[C@H](CC(C)C)C(=O)N[C@H]1C(=O)N[C@@H](CC(N)=O)C(=O)N[C@H]2C(=O)N[C@H]3C(=O)N[C@H](C(=O)N[C@H](C(=O)O)c4cc(O)cc(O)c4-c4cc3ccc4O)[C@H](O)c3ccc(c(Cl)c3)Oc3cc2cc(c3O[C@@H]2O[C@H](CO)[C@@H](O)[C@H](O)[C@H]2O[C@H]2C[C@](C)(N)[C@H](O)[C@H](C)O2)Oc2ccc(cc2Cl)[C@H]1O [Vancomycin, reference compound]
[1]; Enterococcus faecium, MCC2763, 20 h
  MIC: 1 µg/mL (≈ 0.69 µM)
Bacillus subtilis 168; Bacillus subtilis, 168, 20 h
  MIC: 0.125 µg/mL (≈ 0.0863 µM)
[2]; Micrococcus luteus, DSM1790, 20 h
  MIC: 0.125 µg/mL (≈ 0.0863 µM)
[3]; Staphylococcus aureus, ATCC25923, 20 h
  MIC: 1 µg/mL (≈ 0.69 µM)
[4]; Enterococcus faecalis, OG1RF
  MIC: 2 µg/mL (≈ 1.38 µM)
S. aureus ATCC 25923 [7]
  shift of MIC during serial passaging: absence of a shift
S. aureus ATCC 25923 [8]
  lysis of the cell culture: the same as vancomycin
S. aureus ATCC 25923 [9]; time 0 h, log of mean of 3 replicates
  log(CFU/mL): 6.907 log(CFU/mL)
S. aureus ATCC 25923 [9]; time 0 h, mean of 3 replicates
  CFU/mL: 8080000 CFU/mL
S. aureus ATCC 25923 [9]; time 0 h, replicate 1
  CFU/mL: 8440000 CFU/mL
  log(CFU/mL): 6.926 log(CFU/mL)
S. aureus ATCC 25923 [9]; time 0 h, replicate 2
  CFU/mL: 8020000 CFU/mL
  log(CFU/mL): 6.904 log(CFU/mL)
S. aureus ATCC 25923 [9]; time 0 h, replicate 3
  CFU/mL: 7780000 CFU/mL
  log(CFU/mL): 6.891 log(CFU/mL)
S. aureus ATCC 25923 [9]; time 1 h, log of mean of 3 replicates
  log(CFU/mL): 6.695 log(CFU/mL)
S. aureus ATCC 25923 [9]; time 1 h, mean of 3 replicates
  CFU/mL: 4950000 CFU/mL
S. aureus ATCC 25923 [9]; time 1 h, replicate 1
  CFU/mL: 5360000 CFU/mL
  log(CFU/mL): 6.729 log(CFU/mL)
S. aureus ATCC 25923 [9]; time 1 h, replicate 2
  CFU/mL: 5200000 CFU/mL
  log(CFU/mL): 6.716 log(CFU/mL)
S. aureus ATCC 25923 [9]; time 1 h, replicate 3
  CFU/mL: 4290000 CFU/mL
  log(CFU/mL): 6.632 log(CFU/mL)
S. aureus ATCC 25923 [9]; time 3 h, log of mean of 3 replicates
  log(CFU/mL): 6.685 log(CFU/mL)
S. aureus ATCC 25923 [9]; time 3 h, mean of 3 replicates
  CFU/mL: 4836667 CFU/mL
S. aureus ATCC 25923 [9]; time 3 h, replicate 1
  CFU/mL: 4940000 CFU/mL
  log(CFU/mL): 6.694 log(CFU/mL)
S. aureus ATCC 25923 [9]; time 3 h, replicate 2
  CFU/mL: 4850000 CFU/mL
  log(CFU/mL): 6.686 log(CFU/mL)
S. aureus ATCC 25923 [9]; time 3 h, replicate 3
  CFU/mL: 4720000 CFU/mL
  log(CFU/mL): 6.674 log(CFU/mL)
S. aureus ATCC 25923 [9]; time 7 h, log of mean of 3 replicates
  log(CFU/mL): 5.899 log(CFU/mL)
S. aureus ATCC 25923 [9]; time 7 h, mean of 3 replicates
  CFU/mL: 791667 CFU/mL
S. aureus ATCC 25923 [9]; time 7 h, replicate 1
  CFU/mL: 695000 CFU/mL
  log(CFU/mL): 5.842 log(CFU/mL)
S. aureus ATCC 25923 [9]; time 7 h, replicate 2
  CFU/mL: 770000 CFU/mL
  log(CFU/mL): 5.886 log(CFU/mL)
S. aureus ATCC 25923 [9]; time 7 h, replicate 3
  CFU/mL: 910000 CFU/mL
  log(CFU/mL): 5.959 log(CFU/mL)
S. aureus ATCC 25923 [9]; time 26 h, log of mean of 3 replicates
  log(CFU/mL): 3.724 log(CFU/mL)
S. aureus ATCC 25923 [9]; time 26 h, mean of 3 replicates
  CFU/mL: 5300 CFU/mL
S. aureus ATCC 25923 [9]; time 26 h, replicate 1
  CFU/mL: 5500 CFU/mL
  log(CFU/mL): 3.74 log(CFU/mL)
S. aureus ATCC 25923 [9]; time 26 h, replicate 2
  CFU/mL: 5400 CFU/mL
  log(CFU/mL): 3.732 log(CFU/mL)
S. aureus ATCC 25923 [9]; time 26 h, replicate 3
  CFU/mL: 5000 CFU/mL
  log(CFU/mL): 3.699 log(CFU/mL)

## C=C1NC(=O)C(N(C)C)C(C)SC[C@@H](C(=O)N[C@H](C(=O)N[C@@H](C)C(=O)N[C@H](C)C(=O)N[C@@H](C)C(=O)N/C(=C\C)C(=O)N[C@@H](C)C(=O)N[C@H](C)C(=O)N[C@@H](Cc2ccccc2)C(=O)N[C@H](C(=O)N[C@@H](C)C(=O)N[C@H](C)C(=O)N[C@@H](CCC(N)=O)C(=O)N[C@@H](Cc2ccccc2)C(=O)N[C@H](C)C(=O)N[C@@H](C)C(=O)N[C@@H](CCCCN)C(=O)NC2C(=O)N[C@@H](C(C)C)C(=O)N[C@@H](C)C(=O)NCC(=O)NCC(=O)N/C=C\SC2C)C(C)C)[C@@H](C)CC)NC(=O)[C@H](C)NC(=O)[C@@H]2CCCN2C1=O (stereo partly drawn) [kebanetide A2 (5), kebanetide A2]
[1]; MCC2763, 20 h
  MIC: 32 µg/mL (≈ 13.4 µM)
Bacillus subtilis 168; 168, 20 h
  MIC: 32 to 64 µg/mL
[2]; DSM1790, 20 h
  MIC: 32 µg/mL (≈ 13.4 µM)
[3]; ATCC25923, 20 h
  MIC: >64 µg/mL
[4]; OG1RF
  MIC: 16 µg/mL (≈ 6.72 µM)
[6]
  inhibitory activity (zone of inhibition): exhibited growth inhibition
